System: P12-Ichikawa
Test: cell viability relative to DMSO control; higher = less cytotoxic
Details: 48 h
How it was run: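 In 1536-well plates, 5 μl of leukemia cells were seeded per well: 500 cells/well for NOMO1 or SEM and 1000 cells/well for P12-Ichikawa. Each line had first been adapted for at least four passages in each medium. Library compounds in DMSO were pin-dosed at 11 threefold concentrations between 47 μM and 0.79 nM, and CellTiter-Glo One luminescence was read after 48 h at 37°C. Viability is a per-plate percentage relative to DMSO wells, with cell-free wells as background.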

[1] = HPLM + 10% dialyzed FBS, 0.000781 µM
[2] = HPLM + 10% dialyzed FBS, 0.00234 µM
[3] = HPLM + 10% dialyzed FBS, 0.00702 µM
[4] = HPLM + 10% dialyzed FBS, 0.0211 µM
[5] = HPLM + 10% dialyzed FBS, 0.0632 µM
[6] = HPLM + 10% dialyzed FBS, 0.19 µM
[7] = HPLM + 10% dialyzed FBS, 0.569 µM
[8] = HPLM + 10% dialyzed FBS, 1.71 µM
[9] = HPLM + 10% dialyzed FBS, 5.12 µM
[10] = HPLM + 10% dialyzed FBS, 15.4 µM
[11] = HPLM + 10% dialyzed FBS, 46.1 µM
[12] = RPMI 5 mM glucose + 10% FBS, 0.000781 µM
[13] = RPMI 5 mM glucose + 10% FBS, 0.00234 µM
[14] = RPMI 5 mM glucose + 10% FBS, 0.00702 µM
[15] = RPMI 5 mM glucose + 10% FBS, 0.0211 µM
[16] = RPMI 5 mM glucose + 10% FBS, 0.0632 µM
[17] = RPMI 5 mM glucose + 10% FBS, 0.19 µM
[18] = RPMI 5 mM glucose + 10% FBS, 0.569 µM
[19] = RPMI 5 mM glucose + 10% FBS, 1.71 µM
[20] = RPMI 5 mM glucose + 10% FBS, 5.12 µM
[21] = RPMI 5 mM glucose + 10% FBS, 15.4 µM
[22] = RPMI 5 mM glucose + 10% FBS, 46.1 µM
[23] = RPMI 5 mM glucose + 10% dialyzed FBS, 0.000781 µM
[24] = RPMI 5 mM glucose + 10% dialyzed FBS, 0.00234 µM
[25] = RPMI 5 mM glucose + 10% dialyzed FBS, 0.00702 µM
[26] = RPMI 5 mM glucose + 10% dialyzed FBS, 0.0211 µM
[27] = RPMI 5 mM glucose + 10% dialyzed FBS, 0.0632 µM
[28] = RPMI 5 mM glucose + 10% dialyzed FBS, 0.19 µM
[29] = RPMI 5 mM glucose + 10% dialyzed FBS, 0.569 µM
[30] = RPMI 5 mM glucose + 10% dialyzed FBS, 1.71 µM
[31] = RPMI 5 mM glucose + 10% dialyzed FBS, 5.12 µM
[32] = RPMI 5 mM glucose + 10% dialyzed FBS, 15.4 µM
[33] = RPMI 5 mM glucose + 10% dialyzed FBS, 46.1 µM

| SMILES | cell viability [1] [%] | cell viability [2] [%] | cell viability [3] [%] | cell viability [4] [%] | cell viability [5] [%] | cell viability [6] [%] | cell viability [7] [%] | cell viability [8] [%] | cell viability [9] [%] | cell viability [10] [%] | cell viability [11] [%] | cell viability [12] [%] | cell viability [13] [%] | cell viability [14] [%] | cell viability [15] [%] | cell viability [16] [%] | cell viability [17] [%] | cell viability [18] [%] | cell viability [19] [%] | cell viability [20] [%] | cell viability [21] [%] | cell viability [22] [%] | cell viability [23] [%] | cell viability [24] [%] | cell viability [25] [%] | cell viability [26] [%] | cell viability [27] [%] | cell viability [28] [%] | cell viability [29] [%] | cell viability [30] [%] | cell viability [31] [%] | cell viability [32] [%] | cell viability [33] [%] |
| --- | --- | --- | --- | --- | --- | --- | --- | --- | --- | --- | --- | --- | --- | --- | --- | --- | --- | --- | --- | --- | --- | --- | --- | --- | --- | --- | --- | --- | --- | --- | --- | --- | --- |
| CN(C)CC(C)(C)CNc1nn2c(-c3ccccc3)nnc2cc1C1CCC1 | 106 | 103 | 110 | 111 | 112 | 110 | 94.9 | 111 | 84.2 | 33.9 | 6.88 | 108 | 111 | 104 | 102 | 109 | 106 | 87.8 | 105 | 70.3 | 46.7 | 6.32 | 105 | 111 | 107 | 111 | 113 | 115 | 98.3 | 113 | 88.1 | 76.9 | 13.6 |
| CC12CC3CC(C)(C1)CC(N)(C3)C2 | 122 | 119 | 115 | 115 | 129 | 130 | 124 | 122 | 117 | 89.8 | 58.9 | 109 | 118 | 117 | 120 | 138 | 122 | 131 | 130 | 123 | 112 | 78.4 | 110 | 115 | 116 | 117 | 129 | 117 | 125 | 127 | 115 | 109 | 89.7 |
| COc1cc2c(cc1OC)CN(CCc1ccc(NC(=O)c3cc(OC)c(OC)cc3NC(=O)c3cnc4ccccc4c3)cc1)CC2 | 114 | 122 | 115 | 114 | 110 | 113 | 111 | 102 | 65.6 | 62.8 | 44.4 | 124 | 112 | 112 | 120 | 112 | 118 | 105 | 92.7 | 64 | 54.1 | 47.5 | 114 | 106 | 116 | 114 | 113 | 114 | 99.4 | 92 | 56.4 | 56.6 | 46.5 |
| CC#CCn1c(N2CCC[C@@H](N)C2)nc2c1c(=O)n(Cc1nc(C)c3ccccc3n1)c(=O)n2C | 104 | 104 | 99.3 | 89.2 | 108 | 109 | 104 | 97.8 | 103 | 99.7 | 88.5 | 94.9 | 102 | 102 | 85.9 | 96.8 | 94.6 | 96.1 | 93.9 | 91.2 | 87.4 | 94.9 | 104 | 102 | 98.4 | 83.6 | 100 | 109 | 101 | 95.9 | 97.6 | 85.1 | 85.9 |
| O=P(O)(O)C(O)(Cn1ccnc1)P(=O)(O)O | 97.2 | 111 | 64 | 114 | 111 | 122 | 121 | 119 | 125 | 112 | 117 | 109 | 122 | 70.9 | 126 | 131 | 134 | 136 | 137 | 137 | 136 | 125 | 101 | 108 | 67.8 | 111 | 114 | 120 | 116 | 114 | 112 | 122 | 118 |
| CC[C@H]1OC(=O)[C@H](C)C(=O)[C@H](C)[C@@H](O[C@H]2O[C@H](C)C[C@H](N(C)C)[C@H]2O)[C@](C)(OC)C[C@@H](C)C(=O)[C@H](C)[C@H]2N(CCCCn3cnc(-c4cccnc4)c3)C(=O)O[C@]12C | 102 | 119 | 98.3 | 115 | 120 | 116 | 99.1 | 98.3 | 104 | 96.1 | 96.1 | 103 | 109 | 111 | 115 | 122 | 104 | 88.3 | 89.5 | 103 | 105 | 96.5 | 111 | 122 | 140 | 147 | 130 | 82 | 63.3 | 89.9 | 114 | 92.6 | 97.5 |
| Cc1ccnc2c1NC(=O)c1cccnc1N2C1CC1 | 97.4 | 113 | 112 | 106 | 112 | 115 | 115 | 116 | 105 | 106 | 109 | 98.3 | 109 | 117 | 108 | 110 | 116 | 113 | 115 | 102 | 95.2 | 96.5 | 93.5 | 106 | 99.9 | 110 | 108 | 106 | 104 | 111 | 97.1 | 98.8 | 96.8 |
| CC(N[C@H]1CCCC[C@@H]1NC(=O)c1ccc(Cl)cc1)c1cccc2ccccc12 (some centres undefined) | 107 | 109 | 114 | 110 | 113 | 115 | 111 | 116 | 114 | 39.7 | 28.1 | 117 | 119 | 113 | 118 | 117 | 115 | 119 | 111 | 102 | 30.9 | 35.2 | 105 | 105 | 109 | 104 | 102 | 113 | 108 | 110 | 106 | 30.6 | 28.7 |

Reference: the supplement of paper PMC11451515
